Columns and labels:
[1] = tested on: OVCAR3 ovarian xenografts; assay: OVCAR3 ovarian xenograft model; details: dose 20 mg/kg intraperitoneally Q7d×8
[2] = tested on: MDA-MB-468 (breast cancer); assay: In vitro cytotoxicity (MTS), MDA-MB-468; type: cell-based, human; details: Table 13; four days; LP = lacked potency
Experimental: (§1) The effects of anti-Notch3 ADCs were assessed on 1) cell lines endogenously expressing Notch3 protein: HCC2429 (lung cancer), OVCAR3 (ovarian cancer) and MDA-MB-468 (breast cancer), 2) cell lines engineered to over-express full length human Notch3 protein: MDA-MB-468/hNotch3 and U2OS/hNotch3, and 3) a negative control cell line (SW900) using an MTS cellular viability indicator (Promega, Madison, Wis.). These cell lines were cultured with increasing concentrations of anti-Notch3 ADCs comprising rat-human chimeric anti-Notch3 antibodies, ch28 and ch75, and humanized anti-Notch3 antibodies, hu28 and hu75, conjugated to various linker-payload combinations of the present invention. As a specificity control for the anti-Notch3-ADCs, non-targeted control-ADCs (huNeg8.8-ADCs or ch2H6-ADCs) were also tested on the same cell lines. After four days, viability of each culture was assessed. IC50 values were calculated by logistic non-linear regression, model #203 with XL fit v4.2 (IDBS, Guildford, Surry, UK) and presented as ng Ab/mL. The drug antibody ratio (DAR) is also provided.

HCC2429 (lung cancer) = assay: In vitro cytotoxicity (MTS), HCC2429; type: cell-based, human; details: Table 13; four days; LP = lacked potency
Experimental: as §1
(§2) This process generated the anti-Notch3 cysteine mutant ADCs: hu28-(L443C)-vc0101 and hu28-(L443C/κK183C)-vc0101. The activity of the anti-Notch3 cysteine mutant ADCs were assessed on cell lines endogenously expressing Notch3 protein: HCC2429 (lung cancer) and OVCAR3 (ovarian cancer) using an MTS cellular viability indicator as described in previous Examples.

OVCAR3 (ovarian cancer) = assay: In vitro cytotoxicity (MTS), OVCAR3; type: cell-based, human; details: Table 13; four days; LP = lacked potency
Experimental: as §1, §2

Question: How did the tumor volume ([1]; DAY 0) turn out when N.N.O=C([O-])C1(C(=O)[O-])CCC1.[Pt+2] [carboplatin, reference compound] was run?
Answer: 167 mm3

Question: And the tumor volume ([1]; DAY 3)?
Answer: 242 mm3

Question: What about the tumor volume ([1]; DAY 6) of the same molecule?
Answer: 246 mm3

Question: And the tumor volume ([1]; DAY 11)?
Answer: 311 mm3

Question: And the tumor volume ([1]; DAY 14)?
Answer: 426 mm3

Question: And the tumor volume ([1]; DAY 18)?
Answer: 473 mm3

Question: What about the tumor volume ([1]; DAY 21) of the same molecule?
Answer: 475 mm3

Question: And the tumor volume ([1]; DAY 25)?
Answer: 552 mm3

Question: What about the tumor volume ([1]; DAY 28) of the same molecule?
Answer: 640 mm3

Question: And the tumor volume ([1]; DAY 31)?
Answer: 692 mm3

Question: And the tumor volume ([1]; DAY 34)?
Answer: 811 mm3

Question: And the tumor volume ([1]; DAY 38)?
Answer: 869 mm3

Question: What about the tumor volume ([1]; DAY 41) of the same molecule?
Answer: 906 mm3

Question: What about the tumor volume ([1]; DAY 45) of the same molecule?
Answer: 1009 mm3

Question: What about the tumor volume ([1]; DAY 49) of the same molecule?
Answer: 1149 mm3

Question: And the tumor volume ([1]; DAY 53)?
Answer: 1290 mm3

Question: And the tumor volume ([1]; DAY 56)?
Answer: 1370 mm3

Question: And the tumor volume ([1]; DAY 59)?
Answer: 1514 mm3

Question: What about the tumor volume ([1]; DAY 63) of the same molecule?
Answer: 1783 mm3

Question: And the tumor volume ([1]; DAY 67)?
Answer: 1844 mm3

B1: ch75-MalPeg6C2-8261 (conjugate)
VH: QVKLLQSGAALVKPGASVKMSCKASGYAFTDYWVTWVKQSHGKSLEWIGEISPNSGGTNFNEKFKGKATLTVDKSTSTAYMELSRLTSEDSAIYYCTRGEIRYNWFAYWGQGTLVTVSS
VL: DIQMTQSPSSLSASVGDRVTITCKASQNVGNNIAWYQQKPGKAPKLLIYYASNRYTGVPSRFSGSGYGTDFTLTISSLQPEDFATYYCQRLYNSPFTFGGGTKVEIK
Question: For B1, which “IC50 (ng Ab/mL) ± S.E.M., MDA-MB-468” value [2] is on record?
Answer: 4255 ± 2375^ ng Ab/mL

B2: ch75-mc3377 (conjugate)
VH: QVKLLQSGAALVKPGASVKMSCKASGYAFTDYWVTWVKQSHGKSLEWIGEISPNSGGTNFNEKFKGKATLTVDKSTSTAYMELSRLTSEDSAIYYCTRGEIRYNWFAYWGQGTLVTVSS
VL: DIQMTQSPSSLSASVGDRVTITCKASQNVGNNIAWYQQKPGKAPKLLIYYASNRYTGVPSRFSGSGYGTDFTLTISSLQPEDFATYYCQRLYNSPFTFGGGTKVEIK
Question: How did the “IC50 (ng Ab/mL) ± S.E.M., MDA-MB-468” value [2] turn out when B2 was run?
Answer: 560 ng Ab/mL

B3: ch75-me0131 (conjugate)
VH: QVKLLQSGAALVKPGASVKMSCKASGYAFTDYWVTWVKQSHGKSLEWIGEISPNSGGTNFNEKFKGKATLTVDKSTSTAYMELSRLTSEDSAIYYCTRGEIRYNWFAYWGQGTLVTVSS
VL: DIQMTQSPSSLSASVGDRVTITCKASQNVGNNIAWYQQKPGKAPKLLIYYASNRYTGVPSRFSGSGYGTDFTLTISSLQPEDFATYYCQRLYNSPFTFGGGTKVEIK
Question: For B3, which “IC50 (ng Ab/mL) ± S.E.M., MDA-MB-468” value [2] is on record?
Answer: 259 ng Ab/mL

B4: ch28-me0131 (conjugate)
VH: EVQLVESGGGLVQPGRSLTLSCVASGFTFRDYGMTWIRQAPGKGLTWVAYISSGSNYIYYAEAVKGRFTISRDNAKNTLYLQMTSLRSEDTALYFCTRRGPFVLDAWGQGASVTVSS
VL: DIQMTQSPSFLSASVGDRVTINCKASQSINRYLHWFQQKLGEAPKLLIYNANGLQTGIPSRFSGSGSGTDFTLTISSLQSEDVATYFCLQHNTWPDTFGAGTKLELK
Question: For B4, which “IC50 (ng Ab/mL) ± S.E.M., MDA-MB-468” value [2] is on record?
Answer: 24 ± 14.0 ng Ab/mL

Question: And the “IC50 (ng Ab/mL) ± S.E.M., HCC2429” value (HCC2429 (lung cancer))?
Answer: 30 ng Ab/mL

Question: What about the “IC50 (ng Ab/mL) ± S.E.M., OVCAR3” value (OVCAR3 (ovarian cancer)) of the same molecule?
Answer: 8 ± 2.0 ng Ab/mL

B5: ch28-mc3377 (conjugate)
VH: EVQLVESGGGLVQPGRSLTLSCVASGFTFRDYGMTWIRQAPGKGLTWVAYISSGSNYIYYAEAVKGRFTISRDNAKNTLYLQMTSLRSEDTALYFCTRRGPFVLDAWGQGASVTVSS
VL: DIQMTQSPSFLSASVGDRVTINCKASQSINRYLHWFQQKLGEAPKLLIYNANGLQTGIPSRFSGSGSGTDFTLTISSLQSEDVATYFCLQHNTWPDTFGAGTKLELK
Question: What does the source list for B5?
Answer: IC50 (ng Ab/mL) ± S.E.M., MDA-MB-468 [2]: 27 ± 11.3 ng Ab/mL; IC50 (ng Ab/mL) ± S.E.M., OVCAR3 (OVCAR3 (ovarian cancer)): 14 ± 5.5 ng Ab/mL

B6: ch28-mc8261 (conjugate)
VH: EVQLVESGGGLVQPGRSLTLSCVASGFTFRDYGMTWIRQAPGKGLTWVAYISSGSNYIYYAEAVKGRFTISRDNAKNTLYLQMTSLRSEDTALYFCTRRGPFVLDAWGQGASVTVSS
VL: DIQMTQSPSFLSASVGDRVTINCKASQSINRYLHWFQQKLGEAPKLLIYNANGLQTGIPSRFSGSGSGTDFTLTISSLQSEDVATYFCLQHNTWPDTFGAGTKLELK
Question: B6 was tested. Which “IC50 (ng Ab/mL) ± S.E.M., MDA-MB-468” value [2] did it give?
Answer: 12147 ± 4806.4 ng Ab/mL

B7: ch28-vc6780 (conjugate)
VH: EVQLVESGGGLVQPGRSLTLSCVASGFTFRDYGMTWIRQAPGKGLTWVAYISSGSNYIYYAEAVKGRFTISRDNAKNTLYLQMTSLRSEDTALYFCTRRGPFVLDAWGQGASVTVSS
VL: DIQMTQSPSFLSASVGDRVTINCKASQSINRYLHWFQQKLGEAPKLLIYNANGLQTGIPSRFSGSGSGTDFTLTISSLQSEDVATYFCLQHNTWPDTFGAGTKLELK
Question: With B7 as the molecule, how does the “IC50 (ng Ab/mL) ± S.E.M., MDA-MB-468” value [2] read?
Answer: 4407 ± 2128.2 ng Ab/mL

Question: And the “IC50 (ng Ab/mL) ± S.E.M., HCC2429” value (HCC2429 (lung cancer))?
Answer: 324 ± 78.9 ng Ab/mL

Question: And the “IC50 (ng Ab/mL) ± S.E.M., OVCAR3” value (OVCAR3 (ovarian cancer))?
Answer: 90 ± 48.5 ng Ab/mL

B8: ch28-MalPeg6C2-8261 (conjugate)
VH: EVQLVESGGGLVQPGRSLTLSCVASGFTFRDYGMTWIRQAPGKGLTWVAYISSGSNYIYYAEAVKGRFTISRDNAKNTLYLQMTSLRSEDTALYFCTRRGPFVLDAWGQGASVTVSS
VL: DIQMTQSPSFLSASVGDRVTINCKASQSINRYLHWFQQKLGEAPKLLIYNANGLQTGIPSRFSGSGSGTDFTLTISSLQSEDVATYFCLQHNTWPDTFGAGTKLELK
Question: For B8, which “IC50 (ng Ab/mL) ± S.E.M., MDA-MB-468” value [2] is on record?
Answer: 83 ± 35.5 ng Ab/mL

B9: ch28-MalPeg6C2-0131 (conjugate)
VH: EVQLVESGGGLVQPGRSLTLSCVASGFTFRDYGMTWIRQAPGKGLTWVAYISSGSNYIYYAEAVKGRFTISRDNAKNTLYLQMTSLRSEDTALYFCTRRGPFVLDAWGQGASVTVSS
VL: DIQMTQSPSFLSASVGDRVTINCKASQSINRYLHWFQQKLGEAPKLLIYNANGLQTGIPSRFSGSGSGTDFTLTISSLQSEDVATYFCLQHNTWPDTFGAGTKLELK
Question: What does the source list for B9?
Answer: IC50 (ng Ab/mL) ± S.E.M., MDA-MB-468 [2]: 10 ± 1.0 ng Ab/mL; IC50 (ng Ab/mL) ± S.E.M., OVCAR3 (OVCAR3 (ovarian cancer)): 10 ± 2.0 ng Ab/mL

Source: patent US9433687B2, “Anti-Notch3 antibodies and antibody-drug conjugates” (Pfizer Inc., priority 2012, dated 2016)
